Results published in US7446195B2, “High affinity thiophene-based and furan-based kinase ligands” (Schering Corporation, priority 2005, dated 2008).

Molecular target: CDK-2 (Homo sapiens, UniProt P24941)
Assay: CDK-2 inhibition (Table 1; fluorescence polarization displacement assay)
Format: binding
Conditions: inhibitory effectiveness toward CDK-2
Description: The affinity of lead inhibitors binding to CDK-2 and CDK-2/cyclin A were determined by measuring a Ki value using a fluorescence polarization displacement assay. The deacetylated form of compound BMS-250595 was reacted with Alexa Fluor 647 to generate a compound (BMS-Alexa Fluor647) that bound to both proteins and provided a signal for fluorescence polarization displacement. Binding assays were performed in a 384 well Costar NBS coated plate. A total volume of […] contained concentrations of CDK-2 or CDK-2/cyclin A at […], respectively. The concentration of BMS-Alexa Fluor647 was 50 nM. Serial dilutions of compounds were added to 12 wells. The final buffer concentration was 10 mM Hepes, pH 7.5, 150 mM NaCl, and 1 mM DTT. Samples were incubated at room temperature for 15 minutes and then read in an Analyst HT instrument using an excitation and emission wavelength of 580 and 680 nm, respectively. The […] curve fitting tool described by Zhang et al., 2004 (Zhang R., Mayhood T., Lipari P., Wang Y., Durkin D., Syto R., Gesell J., McNemar C., and Windsor W., Analytical Biochemistry 331 (2004) 138-146)

| SMILES | IC50 [µM] |
| --- | --- |
| CC(C)[C@@H](CO)NC(=O)c1ccc(C(=O)Nc2ccc(-n3cncn3)cc2)s1 [Compound 153] | ≥ 40 |
| O=C(NC[C@H](O)c1ccccc1)c1ccc(C(=O)Nc2ccc(-n3cncn3)cc2)s1 [Compound 154] | ≥ 40 |
| Cc1cnc(NC(=O)c2ccc(C(=O)Nc3ccc(-n4cncn4)cc3)s2)s1 [Compound 155] | ≥ 40 |
| O=C(NCCc1ccccn1)c1ccc(C(=O)Nc2ccc(-n3cncn3)cc2)s1 [Compound 156] | ≥ 40 |
| COc1cccc(NC(=O)c2ccc(C(=O)Nc3ccc(-n4cncn4)cc3)s2)c1 [Compound 157] | ≥ 40 |
| O=C(NCc1nc2ccccc2[nH]1)c1ccc(C(=O)Nc2ccc(-n3cncn3)cc2)s1 [Compound 158] | ≥ 40 |
| Cn1c(NC(=O)c2ccc(C(=O)Nc3ccc(-n4cncn4)cc3)s2)nc2ccccc21 [Compound 159] | ≥ 40 |
| O=C(Nc1ccc(-n2cncn2)cc1)c1ccc(C(=O)Nc2ccc3c(c2)C(=O)OC3)s1 [Compound 160] | ≥ 40 |
| O=C(Nc1ccc(-n2cncn2)cc1)c1ccc(C(=O)Nc2ccc3ncsc3c2)s1 [Compound 161] | ≥ 40 |
| O=C(Nc1ccc(-n2cncn2)cc1)c1ccc(C(=O)Nc2cccc(-c3cnco3)c2)s1 [Compound 162] | ≥ 40 |
| O=C(Nc1ccc(-n2cncn2)cc1)c1ccc(C(=O)Nc2cccc(O)c2)s1 [Compound 163] | ≥ 40 |
| Nc1ccc(CNC(=O)c2ccc(C(=O)Nc3ccc(-n4cncn4)cc3)s2)cn1 [Compound 164] | ≥ 40 |
| O=C(Nc1ccc(-n2cncn2)cc1)c1ccc(C(=O)Nc2ccccc2Cl)s1 [Compound 165] | ≥ 40 |
| O=C(Nc1ccc(-n2cncn2)cc1)c1ccc(C(=O)Nc2cc(F)ccc2F)s1 [Compound 166] | ≥ 40 |
| COc1ccc(NC(=O)c2ccc(C(=O)Nc3ccc(-n4cncn4)cc3)s2)cc1O [Compound 167] | ≥ 40 |
| COc1ccc(NC(=O)c2ccc(C(=O)Nc3ccc(-c4c(C)noc4C)cc3)s2)c(C)c1 [Compound 168] | ≥ 40 |

| SMILES | IC50 [µM] |
| --- | --- |
| COc1ccc(NC(=O)c2ccc(C(=O)Nc3ccc4ncccc4c3)s2)c(C)c1 [Compound 169] | ≥ 40 |
| COc1ccc(NC(=O)c2ccc(C(=O)Nc3ccc4nc(C)ccc4c3)s2)c(C)c1 [Compound 170] | ≥ 40 |
| COc1ccc(NC(=O)c2ccc(C(=O)Nc3ccc4c(cnn4C)c3)s2)c(C)c1 [Compound 171] | ≥ 40 |
| COc1ccc(NC(=O)c2ccc(C(=O)Nc3ccc4nccnc4c3)s2)c(C)c1 [Compound 172] | ≥ 40 |
| COc1ccc(NC(=O)c2ccc(C(=O)Nc3ccc4scnc4c3)s2)c(C)c1 [Compound 173] | ≥ 40 |
| COc1ccc(NC(=O)c2ccc(C(=O)Nc3ccc4sc(SC)nc4c3)s2)c(C)c1 [Compound 174] | ≥ 40 |
| COc1ccc(NC(=O)c2ccc(C(=O)Nc3ccc(C#N)cc3)s2)c(C)c1 [Compound 175] | ≥ 40 |
| COc1ccc(NC(=O)c2ccc(C(=O)Nc3ccc(C(N)=O)cc3)s2)c(C)c1 [Compound 176] | ≥ 40 |
| COc1ccc(NC(=O)c2ccc(C(=O)Nc3ccc(Cn4ccnc4)cc3)s2)c(C)c1 [Compound 177] | ≥ 40 |
| COc1ccc(NC(=O)c2ccc(C(=O)Nc3ccc(-c4nnn[nH]4)cc3)s2)c(C)c1 [Compound 178] | ≥ 40 |
| COc1ccc(NC(=O)c2ccc(C(=O)Nc3ccc(-c4ncn(C)n4)cc3)s2)c(C)c1 [Compound 179] | ≥ 40 |
| COc1ccc(NC(=O)c2ccc(C(=O)Nc3ccc(-n4cncn4)cc3F)s2)c(C)c1 [Compound 180] | ≥ 40 |
| COc1ccc(C(=O)Nc2ccc(C(=O)Nc3ccc(-n4cncn4)cc3)o2)cc1 [Compound 181] | ≥ 40 |
| COc1ccc(C(=O)Nc2ccc(C(=O)N3CCC(Oc4cnccn4)CC3)o2)cc1 [Compound 182] | ≥ 40 |
| O=C(Nc1ccc(C(=O)Nc2ccc(-n3cncn3)cc2)o1)c1ccccc1 [Compound 183] | ≥ 40 |
| Cc1ccccc1C(=O)Nc1ccc(C(=O)Nc2ccc(-n3cncn3)cc2)o1 [Compound 184] | ≥ 40 |
